Earlier results as cited in patent US7312209B2, “Acridone inhibitors of IMPDH enzyme” (Bristol-Myers Squibb Company, priority 2001, dated 2007).

Tests used:
IL-2, IL-4, and IFN = conditions: RT-PCR; Rol 10^−7 M, MPA 10^−8 M
IMPDH types I and II = conditions: RT-PCR; low and high concentrations
[1] = test system: antigen-specific T lymphocyte responses; conditions: in combination with Rol 10^−7 M

Row | Structure (SMILES) | downregulation in the generation of proinflammatory cytokines (IL-2, IL-4, IFN) (IL-2, IL-4, and IFN) | gene expression for IMPDH types I and II (IMPDH types I and II) | synergistic effect on inhibition of antigen-induced proliferation [1]
1 | COc1c(C)c2c(c(O)c1C/C=C(\C)CCC(=O)O)C(=O)OC2 [MPA, mycophenolic acid] | no significant downregulation | remained unaffected | marked synergistic effect
2 | COc1ccc(C2CNC(=O)C2)cc1OC1CCCC1 (stereo not drawn) [Rol, 4-[3-(cyclopentyloxy)-4-methoxy-phenyl]-2-pyrrolidinone] | no significant downregulation | remained unaffected | –
3 | C=CC[C@@H]1/C=C(\C)C[C@H](C)C[C@H](OC)[C@H]2O[C@@](O)(C(=O)C(=O)N3CCCC[C@H]3C(=O)O[C@H](/C(C)=C/[C@@H]3CC[C@@H](O)[C@H](OC)C3)[C@H](C)[C@@H](O)CC1=O)[C@H](C)C[C@@H]2OC [tacrolimus] | – | – | little or no synergistic effect
